Assay results taken from PMC5974779, “Prediction of Drug-Induced Hepatotoxicity Using Long-Term Stable Primary Hepatic 3D Spheroid Cultures in Chemically Defined Conditions” (Toxicological Sciences, 2018).
Where two headings read alike, the source gives them in different places.

What was measured:
[1] = test system: PHH micropatterned cocultures with murine embryonic fibroblasts; settings: cited from earlier work
[2] = therapeutic total cmax; ref PMID; cited from earlier work
PHH 2D sandwich cultures = settings: cited from earlier work
[3] = ref DrugBank and Prescribers' Digital Reference database; cited from earlier work
[4] = test system: primary human hepatocytes (PHH) 3D spheroids
clinical DILI in man = settings: cited from earlier work
[5] = test system: PHH spheroids (hanging-drop); settings: cited from earlier work; for Hanging-drop spheroids (Proctor 2017) 100x: PHH hanging-drop spheroids, 100x Cmax, ref Proctor 2017
[6] = micropatterned cocultures, 100x Cmax, ref Khetani 2013
[7] = PHH 2D sandwich cultures, 100x Cmax, ref Xu 2008

| Structure (SMILES) | Cmax [2] | 2Dsw (Xu 2008) 100x (PHH 2D sandwich cultures; [7]) | Extent of hepatic metabolism [3] | Chemically defined spheroids (this study) 20x [4] | Classified as (clinical DILI in man; in vivo) | Clinical DILI class (panel heading of Figure 4) (clinical DILI in man; in vivo) | DILI in vivo (clinical DILI in man; in vivo) | FDA (0-8) (clinical DILI in man; in vivo) | Sakatis et al. (2012) (clinical DILI in man; in vivo) | Type of DILI (clinical DILI in man; in vivo) | Xu et al. (2008) (clinical DILI in man; in vivo) | Hanging-drop spheroids (Proctor 2017) 100x [5] | O'Brien et al. (2003) (clinical DILI in man; in vivo) | other results |
| --- | --- | --- | --- | --- | --- | --- | --- | --- | --- | --- | --- | --- | --- | --- |
| Cc1cccc(Nc2ccccc2C(=O)O)c1C [Mefenamic Acid] | 26.9 µM | Positive | Extensive | Positive | POS | Severe DILI | POS | 8 | Hepatotoxic | Hepatocellular injury | Positive |  |  | MPCC (Khetani 2013) 100x [1, 6]: Positive |
| Cc1ccccc1C(OCCN(C)C)c1ccccc1 (centres unmarked) [Orphenadrine] | 0.49 µM | Negative | Extensive |  | NEG | DILI negative | NEG | 0 | non-hepatotixic | Non-hepatotoxic | Negative | Negative |  |  |
| CN1C(C(=O)Nc2ccccn2)=C(O)c2ccccc2S1(=O)=O [Piroxicam] | 5.13 µM | Negative | Extensive | Negative | POS | High DILI concern | POS | 3 | Hepatotoxic | Hepatocellular injury, Cholestatic injury or Mixed hepatitis | Positive |  | Severely | MPCC (Khetani 2013) 100x [1, 6]: Negative; FDA (Severity) (clinical DILI in man; in vivo): less DILI concern; Guo et al. (2005) (clinical DILI in man; in vivo): 2; Suzuki et al. (2010) (clinical DILI in man; in vivo): 1 |
| C=C[C@H]1C[N@@]2CC[C@H]1C[C@H]2[C@H](O)c1ccnc2ccc(OC)cc12 [Quinine] | 9.25 µM |  |  | Positive |  |  |  |  |  |  |  |  |  | MPCC (Khetani 2013) 100x [1]: Positive; 2Dsw (Xu 2008) 100x (PHH 2D sandwich cultures): Positive |
| CC(c1cc2ccccc2s1)N(O)C(N)=O (centres unmarked) [Zileuton] | 13.1 µM | Positive | Extensive | Negative | POS | High DILI concern | POS | 5 | Hepatotoxic | Hepatocellular injury | Positive | Negative | Severely | hepatotoxicity detection in 2D sandwich cultures of PHH (PHH 2D sandwich cultures; 100× cmax, 24 h, high content imaging, ref Xu et al., 2008): flagged as hepatotoxic; reactive oxygen species levels in 2D sandwich cultures of PHH (PHH 2D sandwich cultures; ref Xu et al., 2008): only slight increases in reactive oxygen species levels; hepatotoxicity evaluation in CD-spheroids [4]: predicted to be DILI negative; FDA (Severity) (clinical DILI in man; in vivo): most DILI concern |
| CN(C)CCCN1c2ccccc2Sc2ccc(Cl)cc21 [Chlorpromazine] | 0.84 µM | Positive | Extensive | Positive | POS | High DILI concern | POS | 2 | Hepatotoxic | Cholestatic injury or Mixed hepatitis | Positive | Positive | Moderately | Guo et al. (2005) (clinical DILI in man; in vivo): 3; Suzuki et al. (2010) (clinical DILI in man; in vivo): 2 |
| CN(Cc1cnc2nc(N)nc(N)c2n1)c1ccc(C(=O)N[C@@H](CCC(=O)O)C(=O)O)cc1 [Methotrexate] |  | Negative | Moderate | Positive |  |  |  |  |  |  |  | Negative |  | hepatotoxicity classification in hanging-drop PHH spheroids ([5]; 100× cmax, 2 weeks, ref Proctor et al., 2017): previously missed; hepatotoxicity evaluation in CD-spheroids [4]: revealed the DILI liability; hepatotoxicity evaluation in CD-spheroids ([4]; human, 14 days): clearly detected already at 1× cmax exposure levels; Guo et al. (2005) (clinical DILI in man; DILI classification score, ref Guo et al. (2005)): 3; Suzuki et al. (2010) (clinical DILI in man; DILI classification score, ref Suzuki et al. (2010)): 1; FDA (0-8) (clinical DILI in man; FDA drug labeling DILI score, ref Chen et al., 2011): 3; DILI in vivo (clinical DILI in man; clinical DILI classification in man (POS/NEG)): POS; Classified as (clinical DILI in man; clinical DILI classification used in this study, Supplementary Table 2, ref Chen et al., 2011, Guo et al., 2005, O'Brien et al., 2006, Sakatis et al., 2012, Suzuki et al., 2010, Xu et al., 2008): POS; DILI in vivo (clinical DILI in man; clinical DILI classification, Supplementary Table 1, ref Chen et al., 2011, Guo et al., 2005, O'Brien et al., 2006, Sakatis et al., 2012, Suzuki et al., 2010, Xu et al., 2008): POS; Xu et al. (2008) (clinical DILI in man; clinical DILI classification, ref Xu et al. (2008)): Positive; O'Brien et al. (2003) (clinical DILI in man; clinical hepatotoxicity classification, ref O'Brien et al. (2003)): Severely; Sakatis et al. (2012) (clinical DILI in man; clinical hepatotoxicity classification, ref Sakatis et al. (2012)): Hepatotoxic; Type of DILI (clinical DILI in man; reported pattern of liver damage, Supplementary Table 2, ref literature): Hepatocellular injury |
